{
  "source": "the NIST ThermoML archive (doi:10.1016/j.jct.2015.08.019)",
  "assay": "excess molar enthalpy (molar enthalpy of mixing); xn = mol fraction of the nth substance listed",
  "conditions": "473 K, 101.3 kPa, Crystal, Calvet calorimetry",
  "note": "Numbers after ± are expanded uncertainties.",
  "data": [
    {"compound": "O=[N+]([O-])[O-].[Tl+]", "note": "[thallium nitrate] + O=[N+]([O-])[O-].[Cs+]", "values": [
      {"measurement": "excess molar enthalpy", "setting": "x2 = 0.25", "result": "0.299 ± 0.0621", "unit": "kcal/mol"},
      {"measurement": "excess molar enthalpy", "setting": "x2 = 0.5", "result": "0.343 ± 0.0717", "unit": "kcal/mol"},
      {"measurement": "excess molar enthalpy", "setting": "x2 = 0.75", "result": "0.248 ± 0.0526", "unit": "kcal/mol"}
    ]}
  ]
}
